TGI and GI50 data for 31 molecules are collected here from PubChem BioAssay (NCI).

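A five-concentration, 48-hour dose response in 96-well plates underlies each endpoint, interpolated linearly between surrounding concentrations. GI50 marks 50% less growth. TGI denotes the concentration required for complete inhibition of growth.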

Among the test systems are MDA-N; KM20L2 colon; LXFL 529 NSCLC; M19-MEL melanoma; RXF-631 renal; XF 498 CNS; DMS 114 small cell lung; HOP-18 NSCLC; P388 leukemia; P388/ADR leukemia; SN12K1 renal.
Holding throughout (test): NCI tumour cell line growth inhibition, 48 h

In turn, `Oc1cc(O)c2c(c1)OC(c1ccc(O)c(O)c1)C(O)C2c1c(O)cc(O)c2c1OC(c1ccc(O)c(O)c1)C(O)C2` (stereo not drawn) displayed a TGI with MDA-N greater than 100 µM.

In turn, `C/C(=N\NC(=S)N1CCN(c2ccccn2)CC1)c1cccc2cccnc12` registered a TGI in the assay with MDA-N greater than 100 µM.

In the assay on MDA-N, `Oc1ccc(/C=N/NC(=S)Nc2cccnc2)nc1` returned a TGI greater than 100 µM.

With `O=C(O)c1cc(Cl)cc(Cc2cc(Cl)cc(C(=O)O)c2O)c1O`, in the assay with MDA-N, the TGI is greater than 100 µM.

`Cc1cn(C2CC(O)C(COC(N)=O)O2)c(=O)[nH]c1=O` (stereo not drawn): in the assay on MDA-N, the TGI is greater than 100 µM.

For `CCc1ccccc1NC(=O)C(=O)C(C#N)c1c(Cl)cccc1Cl` (stereo not drawn), the TGI with KM20L2 colon, in the assay on LXFL 529 NSCLC, in the assay on M19-MEL melanoma, in the assay with RXF-631 renal and in the assay on XF 498 CNS was greater than 100 µM throughout.

In the case of `NS(=O)(=O)c1cc(C(=O)O)c(Cl)c([N+](=O)[O-])c1Cl`, the TGI in the assay on MDA-N is greater than 100 µM.

In the case of `O=C(O)CCSC(=O)Nc1ccccc1`, the TGI in the assay on KM20L2 colon and in the assay with LXFL 529 NSCLC was greater than 100 µM throughout.

Turning to `NC(=O)c1ncn2c(=O)n(CCCl)nnc12`, the TGI came out at 131 µM with DMS 114 small cell lung; 1130 µM in the assay with HOP-18 NSCLC; 319 µM in the assay with KM20L2 colon; 376 µM in the assay with M19-MEL melanoma; 338 µM in the assay with MDA-N; 482 µM in the assay with P388 leukemia. Further, the figures for the TGI in the assay on P388/ADR leukemia, in the assay with SN12K1 renal and with XF 498 CNS were 335 µM, 266 µM and 149 µM, respectively.

Turning to `O=C1CCc2ccc(O)c(c2)Oc2ccc(cc2)[C@@H]2O[C@@H]2CO1`, the TGI is 67 µM in the assay on DMS 114 small cell lung; 80.7 µM in the assay on HOP-18 NSCLC; greater than 100 µM in the assay with KM20L2 colon; greater than 100 µM with LXFL 529 NSCLC; greater than 100 µM in the assay on M19-MEL melanoma; 30.6 µM in the assay on XF 498 CNS.

With `Cc1ccc(NC(=O)CCC(=O)C2Cc3ccccc3C2=O)cc1C` (stereo not drawn), the TGI with DMS 114 small cell lung, in the assay with HOP-18 NSCLC, with KM20L2 colon, with LXFL 529 NSCLC, with M19-MEL melanoma and in the assay with XF 498 CNS was greater than 100 µM each time.

Take `COc1ccc(C(Nc2ccccn2)c2cc(C(C)(C)C)cc(C(C)(C)C)c2O)cc1` (stereo not drawn): in the assay on MDA-N, the TGI is greater than 100 µM.

For `C=CCC1C(=O)CC2(C)C(CC=C)C(=O)CC12C` (stereo not drawn), the TGI with HOP-18 NSCLC, in the assay with KM20L2 colon, in the assay on LXFL 529 NSCLC, in the assay on M19-MEL melanoma, in the assay on RXF-631 renal and in the assay on XF 498 CNS was greater than 100 µM each time.

With `O=c1[nH]c(=O)n(C2OC(CO)C(O)C2O)cc1F` (stereo not drawn), the TGI in the assay with DMS 114 small cell lung is greater than 100 µM; in the assay with HOP-18 NSCLC it was greater than 100 µM; in the assay with KM20L2 colon it was greater than 100 µM; in the assay on LXFL 529 NSCLC, greater than 100 µM; with M19-MEL melanoma, greater than 100 µM; with MDA-N, greater than 70.5 µM. Besides, the TGI in the assay on RXF-631 renal and with XF 498 CNS was greater than 100 µM throughout.

In the case of `O=C(OCc1ccccc1)n1cccc1`, the TGI in the assay on DMS 114 small cell lung, in the assay on HOP-18 NSCLC, in the assay on KM20L2 colon, in the assay on LXFL 529 NSCLC, in the assay with M19-MEL melanoma and with RXF-631 renal was greater than 100 µM each time. In the assay on XF 498 CNS, this molecule had a TGI greater than 100 µM.

With `N#CC1=C(c2ccccc2)OC2(N)OC(c3ccccc3)=C(C#N)C12C#N` (stereo not drawn), the TGI is greater than 100 µM in the assay with DMS 114 small cell lung; 75.1 µM in the assay on HOP-18 NSCLC; greater than 100 µM with KM20L2 colon; greater than 100 µM in the assay with LXFL 529 NSCLC; greater than 100 µM in the assay with M19-MEL melanoma; greater than 100 µM with RXF-631 renal. Further, the TGI in the assay on XF 498 CNS is greater than 100 µM.

For the molecule `CCC(C)C(=O)OC1CCC=C2C=CC(C)C(CCC3CC(O)CC(=O)O3)C21` (stereo not drawn), in the assay on MDA-N, the TGI was greater than 100 µM.

Regarding `CCN(CC)CCCC(C)Nc1ccnc(/C=C/c2ccc(Cl)cc2)c1` (stereo not drawn), in the assay on MDA-N, the TGI was determined as 3.62 µM.

Take `CC(=O)[CH-]C(=O)c1ccccc1.CC(=O)[CH-]C(=O)c1ccccc1.CC(=O)[CH-]C(=O)c1ccccc1.[Br-].[Zr+4]`: the GI50 is 51.6 µM in the assay with KM20L2 colon, 70.7 µM with LXFL 529 NSCLC and 85.8 µM with M19-MEL melanoma. For the same molecule, the TGI in the assay on KM20L2 colon, with LXFL 529 NSCLC and in the assay with M19-MEL melanoma was greater than 100 µM each time.

As to `FC(F)(F)c1nc(Br)[nH]c1C(F)(F)F`, the TGI is greater than 100 µM in the assay with DMS 114 small cell lung; 93.2 µM with HOP-18 NSCLC; greater than 100 µM in the assay with KM20L2 colon; greater than 100 µM in the assay with LXFL 529 NSCLC; greater than 100 µM in the assay with M19-MEL melanoma; greater than 100 µM with RXF-631 renal. The TGI with XF 498 CNS was greater than 100 µM.

In turn, `CCSCCCC(=O)O` came in with a TGI in the assay on MDA-N greater than 100 µM.

As for `CCOC(=O)CCn1cnc(N)n1`, the TGI in the assay with DMS 114 small cell lung, with HOP-18 NSCLC, in the assay on KM20L2 colon, with LXFL 529 NSCLC, in the assay on M19-MEL melanoma and with RXF-631 renal was greater than 100 µM each time. The molecule also gave a TGI in the assay on XF 498 CNS greater than 100 µM.

For `CNC(=O)NCCN1N=C(C)/C(=C\c2ccccc2)CC1=O`, the TGI in the assay on LXFL 529 NSCLC, with M19-MEL melanoma, in the assay on RXF-631 renal and in the assay with XF 498 CNS was greater than 100 µM in each case.

The molecule `O=C(O)c1[nH]c2c([N+](=O)[O-])cc([N+](=O)[O-])cc2c1C(=O)O` yielded a TGI in the assay with MDA-N of 92.9 µM.

For the molecule `CSc1cc(C(C)(C)C)ccc1C(O)c1ccc(C(C)(C)C)cc1SC`, the TGI stood at 22.5 µM with DMS 114 small cell lung; 34 µM with HOP-18 NSCLC; 23.8 µM in the assay on KM20L2 colon; 32.5 µM in the assay on LXFL 529 NSCLC; 23.5 µM in the assay with M19-MEL melanoma; 23.6 µM with XF 498 CNS.

In the case of `CC(C)(C)OC1=C(OC(C)(C)C)C(O)(c2ccc(Cl)cc2)C1=O` (stereo not drawn), the TGI in the assay on DMS 114 small cell lung, in the assay with HOP-18 NSCLC, in the assay with LXFL 529 NSCLC, in the assay on M19-MEL melanoma and in the assay on RXF-631 renal was greater than 100 µM each time.

The molecule `CC(=N/NC(N)=S)/C(C)=N/NC(N)=S` showed a TGI with MDA-N greater than 100 µM.

As for `N#CC(C#N)=C1CCC2C(=C(C#N)C#N)CCC12` (stereo not drawn), the TGI in the assay on DMS 114 small cell lung, in the assay with KM20L2 colon, in the assay with LXFL 529 NSCLC, with M19-MEL melanoma, in the assay with RXF-631 renal and with XF 498 CNS was greater than 100 µM throughout.

Take `CC(=N\O)/C(C)=N/O.CC(=N\O)/C(C)=N/O.[Fe].[NH2-].c1c[nH]cn1`: in the assay with MDA-N, the GI50 was greater than 100 µM and the TGI was greater than 100 µM.

`c1ccc2c(c1)[nH]c1c3ccccc3sc21` yielded a TGI in the assay with MDA-N greater than 100 µM.

Take `Nc1ncnc2c1ncn2CCCCC(=O)O`: in the assay on MDA-N, the TGI was greater than 100 µM.
